Among the data in ChEMBL document CHEMBL5390218, “Benzimidazole derivatives as tubulin polymerization inhibitors: Design, synthesis and in vitro cytotoxicity studies” (Bioorg Med Chem Lett, 2023) are IC50 values, retold here.

Molecules are shown by their SMILES.

One data set has as its system MCF7. As to the kind of experiment: Anticancer activity against human MCF7 cells assessed as inhibition in cell growth measured after 72 hrs by MTT assay. The data set is classed as functional, cell-based. The following applies: MCF7, 72 h. Background: Tetrazolium dyes change colour on reduction, which living cells bring about.
As for `COc1cc(-c2nc3cc(F)ccc3[nH]2)ccc1OCC(=O)N1CCOCC1`, the IC50 (commonly the concentration that inhibits the measured activity by half) is above 20 µM.

As for `COc1cc(-c2nc3ccccc3[nH]2)ccc1OCC(=O)N1CCCC1`, the IC50 is above 20 µM.

Take `COc1ccc2[nH]c(-c3ccc(OCC(=O)N4CCOCC4)c(OC)c3)nc2c1`: the IC50 is above 20 µM.

With `COc1cc(-c2nc3ccccc3[nH]2)ccc1OCC(=O)N1CCc2ccccc21`, the IC50 was determined as 7.68 µM.

With `COc1cc(-c2nc3ccccc3[nH]2)ccc1OCC(=O)N1CCCCC1`, the IC50 was above 20 µM.

In the case of `COc1cc(-c2nc3ccccc3[nH]2)ccc1OCC(=O)N1CCN(c2ncccn2)CC1`, the IC50 was above 20 µM.

Regarding `COC(=O)Nc1nc2cc(C(=O)c3cccs3)ccc2[nH]1` [NOCODAZOLE], the IC50 was 4.13 µM.

For the compound `COc1cc(-c2nc3cc(F)ccc3[nH]2)ccc1OCC(=O)N1CCCCC1`, the IC50 is above 20 µM.

Turning to `COc1cc(-c2nc3ccccc3[nH]2)ccc1OCC(=O)N1CCOCC1`, the IC50 was above 20 µM.

As for `COc1cc(-c2nc3ccccc3[nH]2)ccc1OCC(=O)N1CCN(C(=O)OC(C)(C)C)CC1`, the IC50 is above 20 µM.

In the case of `COc1ccc2[nH]c(-c3ccc(OCC(=O)N4CCCC4)c(OC)c3)nc2c1`, the IC50 is above 20 µM.

`COc1cc(-c2nc3cc(C)ccc3[nH]2)ccc1OCC(=O)N1CCOCC1`: the IC50 was above 20 µM.

Take `COc1cc(-c2nc3cc(F)ccc3[nH]2)ccc1OCC(=O)N1CCCC1`: the IC50 was above 20 µM.

The subject of the next data set is B16-F10. As to the kind of experiment: Anticancer activity against mouse B16-F10 cells assessed as inhibition in cell growth measured after 72 hrs by MTT assay. Format: functional, cell-based. The following applies: B16-F10, 72 h.
Consider `COc1cc(-c2nc3cc(F)ccc3[nH]2)ccc1OCC(=O)N1CCOCC1`, for which the IC50 was above 20 µM.

For `COc1cc(-c2nc3ccccc3[nH]2)ccc1OCC(=O)N1CCCC1`, the half-inhibitory concentration (IC50) is above 20 µM.

For `COc1ccc2[nH]c(-c3ccc(OCC(=O)N4CCOCC4)c(OC)c3)nc2c1`, the IC50 is above 20 µM.

Consider `COc1cc(-c2nc3ccccc3[nH]2)ccc1OCC(=O)N1CCc2ccccc21`, for which the IC50 is above 20 µM.

On to `COc1cc(-c2nc3ccccc3[nH]2)ccc1OCC(=O)N1CCCCC1`, for which the IC50 was above 20 µM.

`COc1cc(-c2nc3ccccc3[nH]2)ccc1OCC(=O)N1CCN(c2ncccn2)CC1`: the half-maximal inhibitory concentration (IC50) was above 20 µM.

Turning to `COC(=O)Nc1nc2cc(C(=O)c3cccs3)ccc2[nH]1` [NOCODAZOLE], the concentration for half-maximal inhibition (IC50) worked out at 8.58 µM.

Regarding `COc1cc(-c2nc3cc(F)ccc3[nH]2)ccc1OCC(=O)N1CCCCC1`, the IC50 is above 20 µM.

`COc1cc(-c2nc3ccccc3[nH]2)ccc1OCC(=O)N1CCOCC1`: the IC50 is above 20 µM.

Turning to `COc1cc(-c2nc3ccccc3[nH]2)ccc1OCC(=O)N1CCN(C(=O)OC(C)(C)C)CC1`, the IC50 is above 20 µM.

As to `COc1ccc2[nH]c(-c3ccc(OCC(=O)N4CCCC4)c(OC)c3)nc2c1`, the IC50 is above 20 µM.

As to `COc1cc(-c2nc3cc(C)ccc3[nH]2)ccc1OCC(=O)N1CCOCC1`, the IC50 is above 20 µM.

For `COc1cc(-c2nc3cc(F)ccc3[nH]2)ccc1OCC(=O)N1CCCC1`, the IC50 was above 20 µM.

The subject of the next data set is HCT-116. In words: Anticancer activity against human HCT-116 cells assessed as inhibition in cell growth measured after 72 hrs by MTT assay. Format: functional, cell-based. The following applies: HCT-116, 72 h.
For the compound `COc1cc(-c2nc3cc(F)ccc3[nH]2)ccc1OCC(=O)N1CCOCC1`, the half-maximal inhibitory concentration (IC50) is above 20 µM.

With `COc1cc(-c2nc3ccccc3[nH]2)ccc1OCC(=O)N1CCCC1`, the IC50 is above 20 µM.

Consider `COc1ccc2[nH]c(-c3ccc(OCC(=O)N4CCOCC4)c(OC)c3)nc2c1`, for which the IC50 is above 20 µM.

`COc1cc(-c2nc3ccccc3[nH]2)ccc1OCC(=O)N1CCc2ccccc21`: the IC50 was above 20 µM.

Turning to `COc1cc(-c2nc3ccccc3[nH]2)ccc1OCC(=O)N1CCCCC1`, the IC50 is above 20 µM.

Take `COc1cc(-c2nc3ccccc3[nH]2)ccc1OCC(=O)N1CCN(c2ncccn2)CC1`: the IC50 was above 20 µM.

As for `COC(=O)Nc1nc2cc(C(=O)c3cccs3)ccc2[nH]1` [NOCODAZOLE], the 50% inhibitory concentration (IC50) is 3.5 µM.

As for `COc1cc(-c2nc3cc(F)ccc3[nH]2)ccc1OCC(=O)N1CCCCC1`, the IC50 was above 20 µM.

As for `COc1cc(-c2nc3ccccc3[nH]2)ccc1OCC(=O)N1CCOCC1`, the IC50 is above 20 µM.

For the compound `COc1cc(-c2nc3ccccc3[nH]2)ccc1OCC(=O)N1CCN(C(=O)OC(C)(C)C)CC1`, the IC50 was above 20 µM.

Turning to `COc1ccc2[nH]c(-c3ccc(OCC(=O)N4CCCC4)c(OC)c3)nc2c1`, the IC50 was above 20 µM.

For `COc1cc(-c2nc3cc(C)ccc3[nH]2)ccc1OCC(=O)N1CCOCC1`, the half-maximal inhibitory concentration (IC50) is above 20 µM.

In the case of `COc1cc(-c2nc3cc(F)ccc3[nH]2)ccc1OCC(=O)N1CCCC1`, the IC50 was above 20 µM.

The test system of another data set is A549. In words: Anticancer activity against human A549 cells assessed as inhibition in cell growth measured after 72 hrs by MTT assay. Format: functional, cell-based. The following applies: A549, 72 h.
Take `COc1cc(-c2nc3cc(F)ccc3[nH]2)ccc1OCC(=O)N1CCOCC1`: the IC50 is above 20 µM.

Regarding `COc1cc(-c2nc3ccccc3[nH]2)ccc1OCC(=O)N1CCCC1`, the IC50 was above 20 µM.

`COc1ccc2[nH]c(-c3ccc(OCC(=O)N4CCOCC4)c(OC)c3)nc2c1`: the IC50 was above 20 µM.

As for `COc1cc(-c2nc3ccccc3[nH]2)ccc1OCC(=O)N1CCc2ccccc21`, the IC50 was above 20 µM.

Take `COc1cc(-c2nc3ccccc3[nH]2)ccc1OCC(=O)N1CCCCC1`: the 50% inhibitory concentration (IC50) was above 20 µM.

Take `COc1cc(-c2nc3ccccc3[nH]2)ccc1OCC(=O)N1CCN(c2ncccn2)CC1`: the concentration for half-maximal inhibition (IC50) is above 20 µM.

`COC(=O)Nc1nc2cc(C(=O)c3cccs3)ccc2[nH]1` [NOCODAZOLE]: the IC50 was 5.93 µM.

Take `COc1cc(-c2nc3cc(F)ccc3[nH]2)ccc1OCC(=O)N1CCCCC1`: the IC50 was above 20 µM.

`COc1cc(-c2nc3ccccc3[nH]2)ccc1OCC(=O)N1CCOCC1`: the IC50 is above 20 µM.

In the case of `COc1cc(-c2nc3ccccc3[nH]2)ccc1OCC(=O)N1CCN(C(=O)OC(C)(C)C)CC1`, the IC50 is above 20 µM.

As to `COc1ccc2[nH]c(-c3ccc(OCC(=O)N4CCCC4)c(OC)c3)nc2c1`, the IC50 is above 20 µM.

`COc1cc(-c2nc3cc(C)ccc3[nH]2)ccc1OCC(=O)N1CCOCC1`: the IC50 is above 20 µM.

`COc1cc(-c2nc3cc(F)ccc3[nH]2)ccc1OCC(=O)N1CCCC1`: the IC50 is above 20 µM.

Tested on in another data set: not listed separately
As to the kind of experiment: Cytotoxicity against NRK-52E cells assessed as inhibition in cell growth measured after 72 hrs by MTT assay. Format: toxicity, cell-based. To be noted: rat.
As for `COc1cc(-c2nc3cc(F)ccc3[nH]2)ccc1OCC(=O)N1CCOCC1`, the IC50 at 72 h was above 100 µM.

Take `COc1cc(-c2nc3ccccc3[nH]2)ccc1OCC(=O)N1CCCC1`: the IC50 at 72 h is above 100 µM.

For `COc1ccc2[nH]c(-c3ccc(OCC(=O)N4CCOCC4)c(OC)c3)nc2c1`, the IC50 at 72 h is above 100 µM.

Regarding `COc1cc(-c2nc3ccccc3[nH]2)ccc1OCC(=O)N1CCc2ccccc21`, the IC50 at 72 h was above 100 µM.

As for `COc1cc(-c2nc3ccccc3[nH]2)ccc1OCC(=O)N1CCCCC1`, the IC50 at 72 h was above 100 µM.

Regarding `COc1cc(-c2nc3ccccc3[nH]2)ccc1OCC(=O)N1CCN(c2ncccn2)CC1`, the IC50 at 72 h was above 100 µM.

Take `COc1cc(-c2nc3cc(F)ccc3[nH]2)ccc1OCC(=O)N1CCCCC1`: the IC50 at 72 h is above 100 µM.

As to `COc1cc(-c2nc3ccccc3[nH]2)ccc1OCC(=O)N1CCOCC1`, the IC50 at 72 h is above 100 µM.

Regarding `COc1cc(-c2nc3ccccc3[nH]2)ccc1OCC(=O)N1CCN(C(=O)OC(C)(C)C)CC1`, the IC50 at 72 h was above 100 µM.

With `COc1ccc2[nH]c(-c3ccc(OCC(=O)N4CCCC4)c(OC)c3)nc2c1`, the IC50 at 72 h is above 100 µM.

As to `COc1cc(-c2nc3cc(C)ccc3[nH]2)ccc1OCC(=O)N1CCOCC1`, the IC50 at 72 h was above 100 µM.

As for `COc1cc(-c2nc3cc(F)ccc3[nH]2)ccc1OCC(=O)N1CCCC1`, the IC50 at 72 h is above 100 µM.

For another data set, the system named is SK-MEL-28. In words: Anticancer activity against human SK-MEL-28 cells assessed as inhibition in cell growth measured after 72 hrs by MTT assay. Format: functional, cell-based. The following applies: SK-MEL-28, 72 h.
Turning to `COc1cc(-c2nc3cc(F)ccc3[nH]2)ccc1OCC(=O)N1CCOCC1`, the IC50 was above 20 µM.

Take `COc1cc(-c2nc3ccccc3[nH]2)ccc1OCC(=O)N1CCCC1`: the IC50 is above 20 µM.

`COc1ccc2[nH]c(-c3ccc(OCC(=O)N4CCOCC4)c(OC)c3)nc2c1`: the IC50 was above 20 µM.

For the compound `COc1cc(-c2nc3ccccc3[nH]2)ccc1OCC(=O)N1CCc2ccccc21`, the IC50 was found to be 3.82 µM.

`COc1cc(-c2nc3ccccc3[nH]2)ccc1OCC(=O)N1CCCCC1`: the IC50 was above 20 µM.

For the compound `COc1cc(-c2nc3ccccc3[nH]2)ccc1OCC(=O)N1CCN(c2ncccn2)CC1`, the IC50 stood at 12.2 µM.

For `COC(=O)Nc1nc2cc(C(=O)c3cccs3)ccc2[nH]1` [NOCODAZOLE], the IC50 was 8.59 µM.

Regarding `COc1cc(-c2nc3cc(F)ccc3[nH]2)ccc1OCC(=O)N1CCCCC1`, the IC50 was above 20 µM.

As to `COc1cc(-c2nc3ccccc3[nH]2)ccc1OCC(=O)N1CCOCC1`, the IC50 was above 20 µM.

For the compound `COc1cc(-c2nc3ccccc3[nH]2)ccc1OCC(=O)N1CCN(C(=O)OC(C)(C)C)CC1`, the IC50 is above 20 µM.

On to `COc1ccc2[nH]c(-c3ccc(OCC(=O)N4CCCC4)c(OC)c3)nc2c1`, for which the IC50 is above 20 µM.

For the compound `COc1cc(-c2nc3cc(C)ccc3[nH]2)ccc1OCC(=O)N1CCOCC1`, the IC50 was above 20 µM.

As to `COc1cc(-c2nc3cc(F)ccc3[nH]2)ccc1OCC(=O)N1CCCC1`, the IC50 is above 20 µM.
